Test results published in patent publication US12187696B2, “Urea motif containing compounds and derivatives thereof as antibacterial drugs” (Technische Universität München, priority 2016, dated 2025).

Experiments:
Type in all cases: cell-based
[1] = test system: Staphylococcus aureus NCTC8325; assay: Minimal inhibitory concentration (MIC) assay; conditions: Staphylococcus aureus, NCTC8325; inhibition of bacterial growth of S. aureus NCTC 8325; obtained by MIC assay
Procedure: Minimum inhibitory concentrations (MICs) represent the lowest concentration of sample that will inhibit the visible growth of a microorganism after overnight incubation, and was obtained by a 96 well plate-based assay (Thermo Scientific) with serial dilutions of the probes tested. […] Bacteria were diluted in fresh medium to a concentration of 10^5 CFU/mL. In the case of all other bacteria species tested, fresh media was inoculated 1/10000 and directly used for testing. Diluted bacterial cultures (99 μL) were added to various concentrations of probe (1 μL of the respective stock in DMSO). A growth control containing DMSO (1 μL) and cultivated medium (99 μL) and a sterile control containing fresh medium (100 μL) were run on every 96 well plate in triplicates. After incubation at 37° C. with gentle shaking (200 rpm) for 24 h, the dilution series was analysed for microbial growth, usually indicated by turbidity and/or a pellet of bacteria at the bottom of the well. The lowest concentration in the dilution series at which no growth of bacteria could be observed by eye was defined as the minimum inhibitory concentration (MIC) of the probe. MIC values were determined by three independent experiments with at least triplicate runs for each concentration. […] Both compounds were tested against various bacterial strains. […] The assay was performed as described above.

[2] = test system: S. aureus NCTC 8325 persister cells; assay: Persister cell assay II; conditions: TSB, with or without 30 μg/mL oxacillin; 20 h or 70 h; 2.4 μM PK/X17-1-150 or PK/X17-4-011, 24 μM sorafenib or PK/X17-2-011, 5 μg/mL ciprofloxacin
Procedure: Persister cell assay II. Tryptic soy broth (50 mL in 250 mL culture flasks) was inoculated 1:1000 with overnight cultures of NCTC 8325 and grown at 37° C. and 200 rpm until an OD600 of 4 was reached or overnight (ON). Serial dilution were prepared and plated to determine the cell numbers in the inoculum. […]. […] After 20 h (A) or 70 h (B) of treatment, cells were harvested, washed two times with PBS (10000×g, 3 min), serially diluted and plated on agar plates for determination of surviving cell numbers.

[3] = test system: S. aureus NCTC 8325 persister cells; assay: Persister cell assay I; conditions: gentamicin-selected persisters in PBS; 70 h; 2.4 μM PK/X17-1-150, 24 μM sorafenib, 5 μg/mL ciprofloxacin

| SMILES | IC50 [1] [µM] | viable persister cells (CFU/mL) vs DMSO control [2] | viable persister cells (CFU/mL) vs DMSO control [3] |
| --- | --- | --- | --- |
| COC(=O)c1cccc(Oc2ccc(NC(=O)Nc3ccc(Cl)c(C(F)(F)F)c3)cc2)c1 [Example 1, Methyl 3-(4-(3-(4-chloro-3-(trifluoromethyl)phenyl)ureido)phenoxy)benzoate] | 0.5 |  |  |
| O=C(Nc1ccc(C(=O)c2ccccc2)cc1)Nc1ccc(Cl)c(C(F)(F)F)c1 [Example 2, 1-(4-Benzoylphenyl)-3-(4-chloro-3-(trifluoromethyl)phenyl)urea] | 1 |  |  |
| CNC(=O)c1ccc(NC(=O)Nc2ccc(Cl)c(C(F)(F)F)c2)cc1 [Example 3, 4-(3-(4-Chloro-3-(trifluoromethyl)phenyl)ureido)-N-methylbenzamide] | 30 |  |  |
| COc1ccc(NC(=O)Nc2ccc(Cl)c(C(F)(F)F)c2)cc1 [Example 5, 1-(4-Chloro-3-(trifluoromethyl)phenyl)-3-(4-methoxyphenyl)urea] | 3 |  |  |
| O=C(Nc1ccc2c(c1)OCO2)Nc1ccc(Cl)c(C(F)(F)F)c1 [Example 6, 1-(Benzo[d][1,3]dioxol-5-yl)-3-(4-chloro-3-(trifluoromethyl)phenyl)urea] | 10 |  |  |
| COc1ccc(NC(=O)Nc2ccc(Cl)c(C(F)(F)F)c2)cc1OC [Example 7, 1-(4-Chloro-3-(trifluoromethyl)phenyl)-3-(3,4-dimethoxyphenyl)urea] | 30 |  |  |
| COc1cc(NC(=O)Nc2ccc(Cl)c(C(F)(F)F)c2)cc(OC)c1OC [Example 8, 1-(4-Chloro-3-(trifluoromethyl)phenyl)-3-(3,4,5-trimethoxyphenyl)urea] | 30 |  |  |
| O=C(Nc1ccc(Cl)c(C(F)(F)F)c1)Nc1cccc2c1OC(F)(F)O2 [Example 9, 1-(4-Chloro-3-(trifluoromethyl)phenyl)-3-(2,2-difluorobenzo[d][1,3]dioxol-4-yl)urea] | 1 |  |  |
| FC1(F)Oc2ccc(NC(=S)Nc3ccc(Cl)c(C(F)(F)F)c3)cc2O1 [Example 10, 1-(4-Chloro-3-(trifluoromethyl)phenyl)-3-(2,2-difluorobenzo[d][1,3]dioxol-5-yl)thiourea] | 1 |  |  |
| O=C(Nc1ccc(Cl)c(C(F)(F)F)c1)Nc1ccc2ccccc2c1 [Example 11, 1-(4-Chloro-3-(trifluoromethyl)phenyl)-3-(naphthalen-2-yl)urea] | 1 |  |  |
| O=C(Nc1ccc(Cc2ccccc2)cc1)Nc1ccc(Cl)c(C(F)(F)F)c1 [Example 12, 1-(4-Benzylphenyl)-3-(4-chloro-3-(trifluoromethyl)phenyl)urea] | 1 |  |  |
| CCc1ccc(NC(=O)Nc2ccc(Cl)c(C(F)(F)F)c2)cc1 [Example 13, 1-(4-Chloro-3-(trifluoromethyl)phenyl)-3-(4-ethylphenyl)urea] | 1 |  |  |
| Cc1cc(NC(=O)Nc2ccc3c(c2)OC(F)(F)O3)ccc1Cl [Example 14, 1-(4-Chloro-3-methylphenyl)-3-(2,2-difluorobenzo[d][1,3]dioxol-5-yl)urea] | 1 |  |  |
| O=C(O)c1cn(C2CC2)c2cc(N3CCNCC3)c(F)cc2c1=O [ciprofloxacin, reference compound] |  | no change | no change |

Second part, led by results:

| IC50 [1] [µM] | SMILES | viable persister cells (CFU/mL) vs DMSO control [2] | viable persister cells (CFU/mL) vs DMSO control [3] |
| --- | --- | --- | --- |
| 1 | O=C(Nc1cccc(C(F)(F)F)c1)Nc1ccc2c(c1)OC(F)(F)O2 [Example 15, 1-(2,2-difluorobenzo[d][1,3]dioxol-5-yl)-3-(3-(trifluoromethyl)phenyl)urea] |  |  |
| 3 | O=C(Nc1ccccc1)Nc1ccc(Cl)c(C(F)(F)F)c1 [Example 16, 1-(4-Chloro-3-(trifluoromethyl)phenyl)-3-phenylurea] |  |  |
| 0.6 | CCCCOC(=O)c1ccc(NC(=O)Nc2ccc(Cl)c(C(F)(F)F)c2)cc1 [Example 17, Butyl 4-(3-(4-chloro-3-(trifluoromethyl)phenyl)ureido)benzoate] |  |  |
| 0.6 | O=C(Nc1ccc(Oc2ccccc2)cc1)Nc1ccc(Cl)c(C(F)(F)F)c1 [Example 18, 1-(4-Chloro-3-(trifluoromethyl)phenyl)-3-(4-phenoxyphenyl)urea] |  |  |
| 1 | O=C(Nc1cccc(NC(=O)Nc2ccc(Cl)c(C(F)(F)F)c2)c1)Nc1ccc(Cl)c(C(F)(F)F)c1 [Example 19] |  |  |
| 10 | C#CCCC1(CCNC(=O)c2cc(Oc3ccc(NC(=O)Nc4ccc(Cl)c(C(F)(F)F)c4)cc3)ccn2)N=N1 [Probe compound, N-(2-(3-(but-3-yn-1-yl)-3H-diazirin-3-yl)ethyl)-4-(4-(3-(4-chloro-3-(trifluoromethyl)phenyl)ureido)phenoxy)picolinamide] |  |  |
| > 100 | O=C(Nc1ccccc1)Nc1ccc2c(c1)OC(F)(F)O2 [Reference Example 1, 1-(2,2-Difluorobenzo[d][1,3]dioxol-5-yl)-3-phenylurea] | no change |  |
| > 100 | Cc1ccc(NC(=O)Nc2ccc3c(c2)OC(F)(F)O3)cc1 [Reference Example 2, 1-(2,2-Difluorobenzo[d][1,3]dioxol-5-yl)-3-(p-tolyl)urea] |  |  |
| > 100 | Cc1cc(C)c(NC(=O)Nc2ccc3c(c2)OC(F)(F)O3)c(C)c1 [Reference Example 3, 1-(2,2-Difluorobenzo[d][1,3]dioxol-5-yl)-3-mesitylurea] |  |  |
| > 100 | CCCCCCCCNC(=O)Nc1ccc2c(c1)OC(F)(F)O2 [Reference Example 4, 1-(2,2-Difluorobenzo[d][1,3]dioxol-5-yl)-3-octylurea] |  |  |
| > 100 | CNC(=O)c1cc(Oc2ccc(NC(=O)Nc3ccccc3)cc2)ccn1 [Reference Example 5, N-Methyl-4-(4-(3-phenylureido)phenoxy)picolinamide] | no change |  |
